According to patent publication US9328138B2 (priority 2011, dated 2016):

Columns and labels:
[1] = molecular target: T1, HCV genotype 1b (BK) NS3 modified enzyme with a R155K mutation (Hepatitis C virus genotype 1b, UniProt P26663, R1181K); experiment: HCV NS3 protease time-resolved fluorescence (TRF) assay, genotype 1b R155K; assay type: biochemical; settings: Ki 1b R155K, genotype 1b (BK) NS3 R155K; single value
T1 construct: HCV genotype 1b (BK) NS3 modified enzyme
How it was run: (§1)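 Assay buffer: 50 mM HEPES pH 7.5, 150 mM NaCl, 0.1% PEG 8000, 0.15% Triton X-100. Ten-minute enzyme–inhibitor preincubation; substrate at 25 nM final; 6 h reaction, room temperature; signal/background set at 5-20 by enzyme amount.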

[2] = molecular target: HCV NS3 protease genotype 3a (3A-1) (Hepatitis C virus genotype 3a, UniProt Q81258); experiment: HCV NS3 protease time-resolved fluorescence (TRF) assay, genotype 3a; assay type: biochemical; settings: Ki 3a
How it was run: as §1

## C=C[C@@H]1C[C@]1(NC(=O)[C@@H]1C[C@@H]2CN1C(=O)[C@H](C1CCCC1)NC(=O)O[C@@H]1CCC[C@H]1CC/C=C/Cc1c(nc3ccccc3c1OCCCN1CCCC1)O2)C(=O)NS(=O)(=O)C1(C)CC1 [Example 54, (3aR,7S,10S,12R,21E,24aS)-7-cyclopentyl-N-[(1R,2S)-2-ethenyl-1-{[(1-methylcyclopropyl)sulfonyl]carbamoyl}cyclopropyl]-5,8-dioxo-19-[3-(pyrrolidin-1-yl)propoxy]-1,2,3,3a,5,6,7,8,11,12,20,23,24,24a-tetradecahydro-10H-9,12-methanocyclopenta[18,19][1,10,3,6] dioxadiazacyclononadecino[11,12-b] quinoline-10-carboxamide]
[1]
  Ki: 0.02 nM
[2]
  Ki: 0.45 nM

## C=C[C@@H]1C[C@]1(NC(=O)[C@@H]1C[C@@H]2CN1C(=O)[C@H](C1CCCC1)NC(=O)O[C@@H]1CCC[C@H]1CC/C=C/Cc1c(nc3ccccc3c1OCCN(C)C)O2)C(=O)NS(=O)(=O)C1CC1 [Example 82, (3aR,7S,10S,12R,21E,24aS)-7-cyclo pentyl-N-{(1R,2S)-1-[(cyclopropylsulfonyl)carbamoyl]-2-ethenylcyclopropyl}-19-[2-(dimethylamino)ethoxy]-5,8-dioxo-1,2,3,3a,5,6,7,8,11,12,20,23, 24,24a-tetradecahydro-10H-9,12-methanocyclopenta[18,19] [1,10,3,6]dioxadiazacyclononadecino [11,12-b]quinoline-10-carboxamide]
[1]
  Ki: 0.18 nM
[2]
  Ki: 2.5 nM

## C=C[C@@H]1C[C@]1(NC(=O)[C@@H]1C[C@@H]2CN1C(=O)[C@H](C(C)(C)C)NC(=O)O[C@@H]1C[C@H]1CCCCCc1c(nc3ccccc3c1OCCCN(C)Cc1ncc(C)[nH]1)O2)C(=O)NS(=O)(=O)C1(C)CC1 [Example 201, (1aR,5S,8S,10R,22aR)-5-tert-butyl-N-[(1R,2S)-2-ethenyl-1-{[(1-methylcyclopropyl)sulfonyl]carbamoyl}cyclopropyl]-17-(3-{methyl[(5-methyl1H-imidazol-2-yl)methyl]amino}proopoxy)-3,6-dioxo-1,1a,3,4,5,6,9,10,18,19,20,21,22,22a-tetradecahydro-8H-7,10-methanocyclopropa[18,19][1,10,3,6] dioxadiazacyclononadecino[11,12-b] quinoline-8-carboxamide]
[1]
  Ki: 0.079 nM
[2]
  Ki: 1.3 nM

## C=C[C@@H]1C[C@]1(NC(=O)[C@@H]1C[C@@H]2CN1C(=O)[C@H](C1CCCCC1)NC(=O)O[C@@H]1C[C@H]1CCCCCc1c(nc3c(OC)cccc3c1OCCN1CCCCC1)O2)C(=O)NS(=O)(=O)C1(C)CC1 [Example 216, (1aR,5S,8S,10R,22aR)-5-cyclohexyl-N-[(1R,2S)-2-ethenyl-1-{[(1-methylcyclopropyl)sulfonyl]carbamoyl}cyclopropyl]-13-methoxy-3,6-dioxo-17-[2-(piperidin-1-yl)ethoxy]-1,1a,3,4,5,6,9,10,18,19,20,21,22,22a-tetradecahydro-8H-7,10-methanocyclopropa[18,19][1,10,3,6] dioxadiazacyclononadecino[11,12-b]quinoline-8-carboxamide]
[1]
  Ki: 0.24 nM
[2]
  Ki: 6.4 nM

## C=C[C@@H]1C[C@]1(NC(=O)[C@@H]1C[C@@H]2CN1C(=O)[C@H](C(C)(C)C)NC(=O)O[C@@H]1C[C@H]1CCCCCc1c(nc3ccccc3c1OCCCN1CCCC1=O)O2)C(=O)NS(=O)(=O)C1(C)CC1 [Example 118, (1aR,5S,8S,10R,22aR)-5-tert-butyl-N-[(1R,2S)-2-ethenyl-1-{[(1-methylcyclopropyl)sulfonyl]carbamoyl}cyclopropyl]-3,6-dioxo-17-[3-(2-oxopyrrolidin-1-yl)propoxy]-1,1a,3,4,5,6,9,10,18,19,20,21,22,22a-tetradeca hydro-8H-7,10-methano cyclopropa[18,19][1,10,3,6] dioxadiazacyclononadecino [11,12-b]quinoline-8-carboxamide]
[1]
  Ki: 0.066 nM
[2]
  Ki: 0.89 nM
